Some test systems named below: DLD-1; HOP-18; DMS-273; KM-20L2; XF498; RXF 631; LXFL 529; T47D.
Common to all, as to test: inhibition of tumour cell growth, NCI panel, 48 h

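Briefly, cells in 96-well plates were exposed to five compound concentrations for 48 h, and endpoints were estimated by linear interpolation. Here, GI50 denotes the concentration required for 50% inhibition of growth.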 Calls of active or inactive are those of the source. No stated cut-off is given here; in the data, active = GI50 up to about 1.1 µM and inactive = higher. Where only a bound is given, the exact number is not on record here.

`Fc1ccc(C2SCc3nc4ccccc4n32)cc1F` (centres undefined): the GI50 in the assay with DLD-1 was 34.2 µM (inactive); in the assay with HOP-18 it was 60.4 µM (inactive); in the assay on DMS-273 it was 26.5 µM (inactive); with KM-20L2, 55.5 µM (inactive); in the assay with XF498 it was 25.4 µM (inactive); with RXF 631, 28.8 µM (inactive). In addition, the GI50 with LXFL 529 is 23.4 µM (inactive).

`c1ccc(NCn2cnc3ccccc32)cc1`: the GI50 is 29.2 µM (inactive) in the assay on DLD-1; > 100 µM (inactive) with HOP-18; > 100 µM (inactive) with DMS-273; 6.04 µM (inactive) in the assay with KM-20L2; > 100 µM (inactive) in the assay on XF498; > 100 µM (inactive) in the assay on RXF 631. Moreover, the GI50 with LXFL 529 was > 100 µM (inactive).

Take `COC(=O)CCC(NC(=S)N/N=C(\C)c1ccco1)C(=O)OC` (centres undefined): the GI50 with DLD-1, in the assay with HOP-18, in the assay with DMS-273, with KM-20L2, in the assay with XF498 and with RXF 631 was > 100 µM (inactive) in each case. The GI50 with LXFL 529 is > 100 µM (inactive).

For `CCCCCCCCCCCCCC(=O)O[C@H]1CC[C@H](NC(=O)[C@H](OC)[C@H](O)[C@@H](O)[C@H](O)/C=C/C(C)C)C(=O)N(C)C1` [BENGAMIDE B], the GI50 was 0.00705 µM (active) with DLD-1; 0.134 µM (active) with HOP-18; < 0.0015 µM (active) with DMS-273; 0.00577 µM (active) in the assay with KM-20L2; 0.0164 µM (active) with XF498; < 0.0015 µM (active) in the assay on RXF 631. The GI50 in the assay with LXFL 529 was 0.0114 µM (active).

On to `COc1ccc(CC2NCCc3cc(OC)c(OC)cc32)cc1` (centres undefined), for which the GI50 with DLD-1, with HOP-18, in the assay with DMS-273, in the assay with KM-20L2, with XF498 and in the assay with RXF 631 was > 100 µM (inactive) each time. In addition, the GI50 in the assay with LXFL 529 is > 100 µM (inactive).

For the compound `C[Si](C)(C)/C(Br)=C\CCN1C(=O)CCC1=O`, the GI50 in the assay with DLD-1, in the assay on HOP-18, with DMS-273, in the assay on KM-20L2, with XF498 and with RXF 631 was > 100 µM (inactive) each time. In addition, in the assay on LXFL 529, the GI50 is > 100 µM (inactive).

Regarding `CCOC(=O)/C(C#N)=C\Sc1ccccc1`, the GI50 with DLD-1 was 18.1 µM (inactive); in the assay with HOP-18, > 100 µM (inactive); with DMS-273 it was 16.3 µM (inactive); in the assay with KM-20L2, 22.8 µM (inactive); with XF498, 28.1 µM (inactive); in the assay on RXF 631, 15.7 µM (inactive). The GI50 in the assay with LXFL 529 is 15 µM (inactive).

Turning to `CCCCN(CCCC)CC(C(=O)Nc1ccc([N+](=O)[O-])cc1[N+](=O)[O-])/C(C)=N\NC(=O)C[N+](C)(C)C` (centres undefined), the GI50 was 69.3 µM (inactive) in the assay on DLD-1; 78.9 µM (inactive) with HOP-18; 15.9 µM (inactive) in the assay with DMS-273; > 100 µM (inactive) in the assay on KM-20L2; 39.3 µM (inactive) with XF498; 69.2 µM (inactive) with RXF 631. The GI50 in the assay with LXFL 529 was 74 µM (inactive).

With `CC(C)CCCCCCCCCCCCC(=O)NCC(=O)NC1C(C)OC(Nc2[nH]cnc3ncnc2-3)C(O)C1O` (centres undefined), the GI50 in the assay on DLD-1 was 0.01 µM (active); in the assay with HOP-18, < 0.01 µM (active); with DMS-273, < 0.01 µM (active); with KM-20L2, < 0.01 µM (active); in the assay on XF498 it was < 0.01 µM (active); in the assay with RXF 631 it was 3.54e-05 µM (active). Further, the GI50 in the assay with LXFL 529 is 0.000588 µM (active); in the assay on T47D, 0.00235 µM (active).
